Measured values published in PubChem BioAssay (NCI).
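Interpolation was linear, between the two tested concentrations surrounding the appropriate level; five concentrations were tested over 48 hours in 96-well plates. The concentration for full growth arrest is given as TGI.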

Tests used:
Assay in all cases: DTP human tumour cell line panel, 48 h
786-0 renal = tested on: 786-0 renal
A498 renal = tested on: A498 renal
A549 NSCLC = tested on: A549 NSCLC
ACHN renal = tested on: ACHN renal
CAKI-1 renal = tested on: CAKI-1 renal
CCRF-CEM leukemia = tested on: CCRF-CEM leukemia
COLO 205 colon = tested on: COLO 205 colon
DU-145 prostate = tested on: DU-145 prostate
EKVX NSCLC = tested on: EKVX NSCLC
HCC-2998 colon = tested on: HCC-2998 colon
HCT-15 colon = tested on: HCT-15 colon
HL-60(TB) leukemia = tested on: HL-60(TB) leukemia
HOP-62 NSCLC = tested on: HOP-62 NSCLC
HOP-92 NSCLC = tested on: HOP-92 NSCLC
HS 578T breast = tested on: HS 578T breast
HT29 colon = tested on: HT29 colon
IGROV1 ovarian = tested on: IGROV1 ovarian
K-562 leukemia = tested on: K-562 leukemia
KM12 colon = tested on: KM12 colon
LOX IMVI melanoma = tested on: LOX IMVI melanoma
M14 melanoma = tested on: M14 melanoma
MALME-3M melanoma = tested on: MALME-3M melanoma
MCF7 breast = tested on: MCF7 breast
MDA-MB-231 breast = tested on: MDA-MB-231 breast
MDA-MB-435 = tested on: MDA-MB-435
MDA-N = tested on: MDA-N
MOLT-4 leukemia = tested on: MOLT-4 leukemia
NCI-H226 lung = tested on: NCI-H226 lung
NCI-H23 lung = tested on: NCI-H23 lung
NCI-H460 lung = tested on: NCI-H460 lung
NCI-H522 lung = tested on: NCI-H522 lung
NCI/ADR-RES ovarian = tested on: NCI/ADR-RES ovarian
OVCAR-3 ovarian = tested on: OVCAR-3 ovarian
OVCAR-4 ovarian = tested on: OVCAR-4 ovarian
OVCAR-5 ovarian = tested on: OVCAR-5 ovarian
OVCAR-8 ovarian = tested on: OVCAR-8 ovarian
PC-3 prostate = tested on: PC-3 prostate
RPMI-8226 leukemia = tested on: RPMI-8226 leukemia
RXF 393 renal = tested on: RXF 393 renal
SF-268 CNS = tested on: SF-268 CNS
SF-295 CNS = tested on: SF-295 CNS
SF-539 CNS = tested on: SF-539 CNS
SK-MEL-2 melanoma = tested on: SK-MEL-2 melanoma
SK-MEL-28 melanoma = tested on: SK-MEL-28 melanoma
SK-MEL-5 melanoma = tested on: SK-MEL-5 melanoma
SK-OV-3 ovarian = tested on: SK-OV-3 ovarian
SNB-19 CNS = tested on: SNB-19 CNS
SNB-75 CNS = tested on: SNB-75 CNS
SR leukemia = tested on: SR leukemia
SW-620 colon = tested on: SW-620 colon
T-47D breast = tested on: T-47D breast
TK-10 renal = tested on: TK-10 renal
U251 CNS = tested on: U251 CNS
UACC-257 melanoma = tested on: UACC-257 melanoma
UACC-62 melanoma = tested on: UACC-62 melanoma
UO-31 renal = tested on: UO-31 renal
HCT-116 colon = tested on: HCT-116 colon
SN12C renal = tested on: SN12C renal

Measured: TGI

O=C1CCC2(CC1CC(Sc1ccccc1)Sc1ccccc1)OCCO2 (centres undefined)
66.1 µM: COLO 205 colon
84.7 µM: MALME-3M melanoma
87.5 µM: SR leukemia
97.3 µM: T-47D breast
38 µM: SK-MEL-5 melanoma
85.4 µM: NCI-H522 lung
> 100 µM: 786-0 renal | A498 renal | A549 NSCLC | ACHN renal | CAKI-1 renal | CCRF-CEM leukemia | DU-145 prostate | EKVX NSCLC | HCC-2998 colon | HCT-15 colon | HOP-62 NSCLC | HOP-92 NSCLC | HT29 colon | IGROV1 ovarian | K-562 leukemia | KM12 colon | LOX IMVI melanoma | M14 melanoma | MCF7 breast | MDA-MB-231 breast | MDA-MB-435 | MDA-N | NCI-H226 lung | NCI-H23 lung | NCI-H460 lung | NCI/ADR-RES ovarian | OVCAR-3 ovarian | OVCAR-4 ovarian | OVCAR-5 ovarian | OVCAR-8 ovarian | PC-3 prostate | RPMI-8226 leukemia | RXF 393 renal | SF-268 CNS | SF-295 CNS | SF-539 CNS | SK-MEL-2 melanoma | SK-MEL-28 melanoma | SK-OV-3 ovarian | SNB-19 CNS | SNB-75 CNS | SW-620 colon | TK-10 renal | U251 CNS | UACC-257 melanoma | UACC-62 melanoma | UO-31 renal
46 µM: HL-60(TB) leukemia
66.3 µM: MOLT-4 leukemia
88.1 µM: HS 578T breast

O=S(=O)(c1ccccc1)n1c2ccc(Br)cc2c2nc3ccccc3nc21
> 100 µM: 786-0 renal | A498 renal | A549 NSCLC | ACHN renal | CAKI-1 renal | CCRF-CEM leukemia | COLO 205 colon | DU-145 prostate | HCC-2998 colon | HCT-116 colon | HCT-15 colon | HOP-62 NSCLC | HOP-92 NSCLC | HS 578T breast | HT29 colon | IGROV1 ovarian | K-562 leukemia | KM12 colon | LOX IMVI melanoma | M14 melanoma | MALME-3M melanoma | MDA-MB-231 breast | MDA-MB-435 | MDA-N | MOLT-4 leukemia | NCI-H226 lung | NCI-H23 lung | NCI-H460 lung | NCI-H522 lung | NCI/ADR-RES ovarian | OVCAR-3 ovarian | OVCAR-4 ovarian | OVCAR-5 ovarian | OVCAR-8 ovarian | PC-3 prostate | RPMI-8226 leukemia | RXF 393 renal | SF-268 CNS | SF-295 CNS | SK-MEL-2 melanoma | SK-MEL-28 melanoma | SK-MEL-5 melanoma | SN12C renal | SNB-19 CNS | SNB-75 CNS | SR leukemia | SW-620 colon | T-47D breast | TK-10 renal | U251 CNS | UACC-257 melanoma | UACC-62 melanoma | UO-31 renal
